Converted amounts (≈) assume the structure as drawn.
Tests used:
Escherichia coli KC-14 [1] = test: Mouse intraperitoneal infection, survival after one week; type: in vivo, ddY strain mice; details: KC14, po; Escherichia coli KC-14, 5 × 10^4 per mouse; one dose per os 2 h after infection
Experimental: (§1) ddY--Strain mice (male; body weight 20±1 grams) of SPF were innoculated with the bacteria set forth in Table 2 by administration of a supension of the bacterial in 4% mucin solution into the abdominal cavity. A compound of the invention was given one time per os two hours after the infection, and, from the survival rate after one week. 50% effective doses (ED50) were calculated by the Behrens-Karber method.

Serracia marcescens T-55 = test: as above; type: in vivo, ddY strain mice; details: po; Serracia marcescens T-55, 5 × 10^6 per mouse; one dose per os 2 h after infection
Experimental: as §1

[2] = tested on: Pseudomonas aeruginosa E-2; test: as above; type: in vivo, ddY strain mice; details: E2, po; Pseudomonas aeruginosa E-2, 2 × 10^5 per mouse; one dose per os 2 h after infection; Behrens-Karber
Experimental: as §1

[3] = tested on: Acimetobacter calcoaceticus; test: as above; type: in vivo, ddY strain mice; details: po, 1 × 10^7 per mouse, one dose per os 2 h after infection
Experimental: as §1

[4] = tested on: Klebsiella pneumoniae K-1966; test: as above; type: in vivo, ddY strain mice; details: K1966, po; Klebsiella pneumoniae K-1966, 3 × 10^3 per mouse; one dose per os 2 h after infection
Experimental: as §1

[5] = tested on: Staphylococcus aureus Smith; test: as above; type: in vivo, ddY strain mice; details: po, 3 × 10^6 per mouse, one dose per os 2 h after infection
Experimental: as §1

Proteus mirabilis 181 [6] = test: as above; type: in vivo, ddY strain mice; details: po; Proteus mirabilis 181, 2 × 10^7 per mouse; one dose per os 2 h after infection
Experimental: as §1

[7] = Blood serum concentration, disc method; type: in vivo, ddY strain mice; details: mouse, serum, po, 60 mg/kg per os, average ± standard error
Experimental: In this experiment, ddY strain mice (male; body weight 30±2 grams) were used. Sixty mg/kg of the compound of Example 22b were given per os. The blood concentration was calculated from calibration curves obtained by the disc method using Escherichia coli NIHJ strain as tested bacteria and diluting the test compound of mice serum.

[8] = tested on: Pseudomonas aeruginosa E-2; test: Ascending urinary tract infection; type: in vivo, ICR female mice
Experimental: ICR Female mice (body weight 20±1 grams) of SPE strain were used in the experiments. The mice were not given any water for seventeen hours, then compulsorily urinated, anesthesized by the administration of 60 mg/kg of pentobarbital into the abdominal cavity, then 1.5×10^5 of Pseudomonas aeruginosa E-2 strain were impregnated into the bladder via the urinary tract, and the external urinary meatus was stopped for four hours by a pin clip, whereupon the mice were infected in the ascending urinary tract.
The compound of Example 22b was given once orally, 4 hours after infection, then twice a day, and the administration was continued for three days. On the fourth day, the kidney was isolated, homogenized in a physiological saline solution, and the number of bacteria was calculated on suitable medium such as, for example, Drigalski medium. If the number of bacteria per one gram of kidney was less than […], then the compound was judged as "effective".

[9] = Excretion into urine and recovery, disc method; type: in vivo, ddY strain mice; details: 60 mg/kg per os, average ± standard error
Experimental: In the measurement of excretion into urine, ddY strain mice (male; body weights 30±2 grams) were used. Sixty mg/kg of the compound of Example 22b was administered per os and the mice were fed in metabolic cages and their urine was collected.
Therefore, in the quantitative determination, the calibration curve of the compound of Example 21, calculated by the disc method using Escherichia coli NIHJ strain and using the compound dissolved in phosphoric acid buffer (pH 8.0; 1/15M) was used. Table 5 reports the excretion into urine with respect to time, total recovery amount and recovery rate of the compound of Example 22b.

Acute toxicity = details: mouse, in vivo; oral, groups of ten ddY male mice; read-out: 50% Lethal Doses (LD50)
Experimental: Groups of ten ddY strain male mice (body weights: 20±1 grams) of the test compound were orally administered to determine the LD50. There was […] in which many mice died when the dose was 2000 mg/kg or less.

[10] = tested on: Streptococcus pyogenes S-23; test: Minimum growth inhibiting concentration, Japan Chemotherapeutic Society method; type: cell-based; details: S23; Streptococcus pyogenes S-23, Gram +; 5% horse blood added agar medium; read-out: Minimum Growth Inhibiting Concn
Experimental: (§2) The Antibacterial activity of the compounds of Examples 14, 13, 22b, 21 and 15 was determined in accordance with the method of Japan Chemotherapeutic Society (cf. Nippon Kagaku Ryoho Gakkai Shi, volume 29, number 1, pages 76 to 79, 1981) and the results are reported in Table 1, which follows. | *5% Horse blood added agar medium for sensitivity measurement being used.

[11] = tested on: Bacillus subtilis ATCC 6633; test: as above; type: cell-based; details: ATCC6633; Bacillus subtilis ATCC 6633, Gram +; 5% horse blood added agar medium; read-out: Minimum Growth Inhibiting Concn
Experimental: as §2

[12] = tested on: Streptococcus pneumoniae Type I; test: as above; type: cell-based; details: Gram +, 5% horse blood added agar medium, read-out: Minimum Growth Inhibiting Concn
Experimental: as §2

[13] = tested on: Alcaligenes faecalis ATCC 8750; test: as above; type: cell-based; details: ATCC8750; Alcaligenes faecalis ATCC 8750, Gram -; read-out: Minimum Growth Inhibiting Concn
Experimental: (§3) The Antibacterial activity of the compounds of Examples 14, 13, 22b, 21 and 15 was determined in accordance with the method of Japan Chemotherapeutic Society (cf. Nippon Kagaku Ryoho Gakkai Shi, volume 29, number 1, pages 76 to 79, 1981) and the results are reported in Table 1, which follows.

Escherichia coli KC-14 [14] = test: as above; type: cell-based; details: KC14; Escherichia coli KC-14, Gram -; read-out: Minimum Growth Inhibiting Concn
Experimental: as §3

[15] = tested on: Pseudomonas aeruginosa E-2; test: as above; type: cell-based; details: E2; Pseudomonas aeruginosa E-2, Gram -; read-out: Minimum Growth Inhibiting Concn
Experimental: as §3

[16] = tested on: Pseudomonas maltophilia ATCC 13637; test: as above; type: cell-based; details: Stenotrophomonas maltophilia, ATCC13637; Pseudomonas maltophilia ATCC 13637, Gram -; read-out: Minimum Growth Inhibiting Concn
Experimental: as §3

[17] = tested on: Klebsiella pneumoniae K-1966; test: as above; type: cell-based; details: K1966; Klebsiella pneumoniae K-1966, Gram -; read-out: Minimum Growth Inhibiting Concn
Experimental: as §3

Proteus vulgaris DX-19 = test: as above; type: cell-based; details: DX19; Proteus vulgaris DX-19, Gram -; read-out: Minimum Growth Inhibiting Concn
Experimental: as §3

[18] = tested on: Listeria monocytogenes RIMD 1205020; test: as above; type: cell-based; details: RIMD1205020; Listeria monocytogenes RIMD 1205020, Gram +; read-out: Minimum Growth Inhibiting Concn
Experimental: as §3

[19] = tested on: Pseudomonas cepacia ATCC 25416; test: as above; type: cell-based; details: Burkholderia cepacia, ATCC25416; Pseudomonas cepacia ATCC 25416, Gram -; read-out: Minimum Growth Inhibiting Concn
Experimental: as §3

[20] = tested on: Staphylococcus aureus 209-PJC; test: as above; type: cell-based; details: Gram +, read-out: Minimum Growth Inhibiting Concn
Experimental: as §3

[21] = tested on: Staphylococcus aureus Smith; test: as above; type: cell-based; details: Gram +, read-out: Minimum Growth Inhibiting Concn
Experimental: as §3

[22] = tested on: Micrococcus luteus ATCC 9341; test: as above; type: cell-based; details: ATCC9341; Micrococcus luteus ATCC 9341, Gram +; read-out: Minimum Growth Inhibiting Concn
Experimental: as §3

[23] = tested on: Acinetobacter calcoacelicus 54; test: as above; type: cell-based; details: Acinetobacter calcoacelicus 54, Gram -; read-out: Minimum Growth Inhibiting Concn
Experimental: as §3

Proteus mirabilis 181 [24] = test: as above; type: cell-based; details: Proteus mirabilis 181, Gram -; read-out: Minimum Growth Inhibiting Concn
Experimental: as §3

[25] = tested on: Serracia marcescens IFO 3736; test: as above; type: cell-based; details: Serracia marcescens IFO 3736, Gram -; read-out: Minimum Growth Inhibiting Concn
Experimental: as §3

[26] = tested on: Pseudomonas aeruginosa No. 12; test: as above; type: cell-based; details: Pseudomonas aeruginosa No. 12, Gram -; read-out: Minimum Growth Inhibiting Concn
Experimental: as §3

[27] = tested on: Escherichia coli NIHJ JC-2; test: as above; type: cell-based; details: NIHJJC2; Escherichia coli NIHJ JC-2, Gram -; read-out: Minimum Growth Inhibiting Concn
Experimental: as §3

Which ED50 (Escherichia coli KC-14 [1]) does the source give for `CCn1cc(C(=O)O)c(=O)c2cc(F)c(N3CCNCC3)cc21` [Comparison Compd., 1-ethyl-6-fluoro-7-(1-piperazinyl)-4-oxo-1,4-dihydroquinoline-3-carboxylicacid, reference compound] here?
Its ED50 is 3.3 mg/kg.

And the ED50 (Serracia marcescens T-55)?
Its ED50 is 6 mg/kg.

And the ED50 [2]?
The ED50 was 260 mg/kg.

What about the ED50 [3] of the same compound?
Its ED50 is over 35 mg/kg.

And the ED50 [4]?
Its ED50 is over 13 mg/kg.

And the ED50 [5]?
The ED50 was over 25 mg/kg.

And the ED50 (Proteus mirabilis 181 [6])?
Its ED50 is 29 mg/kg.

And the concentration at 0.25 h ([7]; 0.25 hours)?
The concentration at 0.25 h was 640 ± 90 ng/mL.

And the concentration at 0.5 h ([7]; 0.5 hours)?
Its concentration at 0.5 h is 900 ± 290 ng/mL.

And the concentration at 1 h ([7]; 1 hour)?
Its concentration at 1 h is 580 ± 100 ng/mL.

What about the concentration at 2 h ([7]; 2 hours) of the same compound?
Its concentration at 2 h is 330 ± 150 ng/mL.

What about the concentration at 4 h ([7]; 4 hours) of the same compound?
Its concentration at 4 h is 90 ± 10 ng/mL.

What about the “Number Of Mice Where Compound Was Effective/Total Mice Tested” value ([8]; 3.13 mg/kg oral) of the same compound?
The value was 0/7.

And the “Number Of Mice Where Compound Was Effective/Total Mice Tested” value ([8]; 6.25 mg/kg oral)?
The value was 0/7.

What about the “Number Of Mice Where Compound Was Effective/Total Mice Tested” value ([8]; 12.5 mg/kg oral) of the same compound?
Its value is 0/7.

What about the “Number Of Mice Where Compound Was Effective/Total Mice Tested” value ([8]; 25 mg/kg oral) of the same compound?
The value was 1/7.

And the “Number Of Mice Where Compound Was Effective/Total Mice Tested” value ([8]; 50 mg/kg oral)?
Its value is 4/7.

And the “Number Of Mice Where Compound Was Effective/Total Mice Tested” value ([8]; 100 mg/kg oral, 4 h after infection then twice a day, three days)?
The value was 6/7.

What about the ED50 ([8]; Pseudomonas aeruginosa, E2, in Mus musculus, 72 h, ascending urinary tract infection, oral, three days, read-out: 50% Effective Dose) of the same compound?
The ED50 was 58 mg/kg.

And the “Amount excreted into Urine” value ([9]; 0-3 hrs)?
The value was 60.25 ± 17.9 µg.

What about the “Amount excreted into Urine” value ([9]; 3-6 hrs) of the same compound?
Its value is 29.25 ± 9.0 µg.

And the “Amount excreted into Urine” value ([9]; 6-24 hrs)?
The value was 19.78 ± 6.6 µg.

For `O=C(O)c1c(=O)c2cc(F)c(N3CCNCC3)cc2n2ccsc12` [Example 13, 7-fluoro-5-oxo-8(1-piperazinyl)-5H-thiazolo(3,2-a)quinoline-4-carboxylic acid], which LD50 (Acute toxicity) is on record?
Its LD50 is over 2000 mg/kg.

What about the MIC [10] of the same compound?
Its MIC is 0.1 µg/mL (≈ 0.288 µM).

What about the MIC [11] of the same compound?
The MIC was 0.0063 µg/mL (≈ 0.0181 µM).

And the MIC [12]?
The MIC was 0.1 µg/mL (≈ 0.288 µM).

What about the MIC [13] of the same compound?
Its MIC is 0.78 µg/mL (≈ 2.25 µM).

What about the MIC (Escherichia coli KC-14 [14]) of the same compound?
Its MIC is 0.0063 µg/mL (≈ 0.0181 µM).

What about the MIC [15] of the same compound?
The MIC was 0.2 µg/mL (≈ 0.576 µM).

And the MIC [16]?
The MIC was 0.5 µg/mL (≈ 1.44 µM).

And the MIC [17]?
The MIC was 0.025 µg/mL (≈ 0.072 µM).

What about the MIC (Proteus vulgaris DX-19) of the same compound?
Its MIC is 0.013 µg/mL (≈ 0.0374 µM).

And the MIC [18]?
Its MIC is 0.2 µg/mL (≈ 0.576 µM).

What about the MIC [19] of the same compound?
Its MIC is 0.78 µg/mL (≈ 2.25 µM).

What about the MIC [20] of the same compound?
The MIC was 0.025 µg/mL (≈ 0.072 µM).

And the MIC [21]?
Its MIC is 0.05 µg/mL (≈ 0.144 µM).

And the MIC [22]?
Its MIC is 0.78 µg/mL (≈ 2.25 µM).

And the MIC [23]?
The MIC was 0.78 µg/mL (≈ 2.25 µM).

And the MIC (Proteus mirabilis 181 [24])?
The MIC was 0.0063 µg/mL (≈ 0.0181 µM).

And the MIC [25]?
The MIC was 0.2 µg/mL (≈ 0.576 µM).

And the MIC [26]?
The MIC was 0.2 µg/mL (≈ 0.576 µM).

And the MIC [27]?
Its MIC is 0.05 µg/mL (≈ 0.144 µM).

— US4659734A, “Olinecarboxylic acid derivatives” (Nippon Shinyaku Co., Ltd., priority 1983, dated 1987)
